The test system of assay [1] is H2087-TLISSLMPI (SEQ ID NO: 2) subcutaneous tumor. Briefly: Peptide-specific DC-CTL vaccine in H2087-[…] tumor model. The format is in vivo, NOD/SCID mice. As to conditions: DC-CTL activated by peptide, tail vein, about 1×10^8 cells; vs wild-type peptide group. Here is the method: The human non-small cell lung adenocarcinoma cell line H2087-[…] (SEQ ID NO: 2) as established in Example 7 was cultured in DMEM medium containing 10% fetal bovine serum, 100 U/mL penicillin and 100 U/mL streptomycin in an incubator at 37° C., 5% CO2. H2087-[…] (SEQ ID NO: 2) tumor cells were collected, centrifuged at 1500 rpm for 5 min, and washed 3 times with sterile physiological saline. The tumor cells were diluted appropriately. To 40 μl of cell suspension was added 10 μl of 0.4% […] for staining and microscopically counting cells. A tumor cell suspension at a concentration of 1*10^8 cells/ml was prepared. 100 μl of the tumor cell suspension was inoculated subcutaneously into a NOD/SCID mouse or an immune-reconstituted NOD/SCID mouse. […] The long diameter a and the short diameter b of the tumor were measured with a vernier caliper every 2-3 days and the size of the tumor was calculated as a*b*b/2. The mice and tumors were weighed and recorded every day. […] The tumor volume and the survival rate of mice were recorded every 2 days. […]
The collected PBLs were subjected to magnetic bead sorting to obtain CD8+ T cells, which were sensitized by co-incubation with DCs loaded with the wild-type peptide, DCs loaded with the mutant peptide […] […] The number of lymphocytes was counted and a cell proliferation index (PI) was calculated on days 0, 7, 14, and 21 of culture, respectively. […]

Assay [2] has the same test system. The assay is described as follows: DC vaccine infected with recombinant lentivirus containing peptide gene in H2087-[…] tumor model. The format is in vivo, NOD/SCID mice. As to conditions: DC infected with lentivirus carrying peptide gene, 2 injections. The source says:
The following DNA sequences were synthesized: “[…]” (SEQ ID NO: 8), encoding the wild-type peptide […] (SEQ ID NO: 1); “[…]” (SEQ ID NO: 9), encoding the mutant peptide […] (SEQ ID NO: 2); “[…]” (SEQ ID NO: 10), encoding the SEQ ID NO: 2 […]'s variant peptide […] (SEQ ID NO: 3); “[…]” (SEQ ID NO: 11), encoding the SEQ ID NO: 2 […]'s variant peptide […] (SEQ ID NO: 4); “[…]” (SEQ ID NO: 12), encoding the SEQ ID NO: 2 […]'s variant peptide […] (SEQ ID NO: 5); “[…]” (SEQ ID NO: 13), encoding the SEQ ID NO: 2 […]'s variant peptide […] (SEQ ID NO: 6); and “[…]” (SEQ ID NO: 14), encoding the SEQ ID NO: 2_[…]'s variant peptide […] (SEQ ID NO: 7). The wild-type peptide […] (SEQ ID NO: 1), the mutant peptide […] (SEQ ID NO: 2) and the mutant peptide SEQ ID NO: 2 […]'s variant peptides were constructed into the lentiviral vector pHBLV-Puro, respectively, to name as pHBLV-Puro-[…] (SEQ ID NO: 1), pHBLV-Puro-[…] (SEQ ID NO: 2), pHBLV-Puro-[…] (SEQ ID NO: 3), pHBLV-Puro-[…] (SEQ ID NO: 4), pHBLV-Puro-[…] (SEQ ID NO: 5), pHBLV-Puro-[…] (SEQ ID NO: 6) and pHBLV-Puro-[…] (SEQ ID NO: 7), respectively. The seven lentiviral constructs were co-transfected into 293T cells with helper plasmids pSPAX2 and pMD2G for packaging, and lentiviruses of the wild-type peptide […] (SEQ ID NO: 1), the mutant peptide […] (SEQ ID NO: 2) and the mutant peptide's variant peptides were obtained.
600-900 ml of anticoagulated peripheral blood was collected from healthy volunteers for isolating peripheral blood mononuclear cells (PBMCs) via Ficoll. Cells were collected for use. 2×10^7 PBMCs per 0.5 ml was intraperitoneally injected into each of 300 NOD SCID mice without immune leakage to perform human immune reconstitution in NOD SCID mice. […]
The human non-small cell lung adenocarcinoma cell line H2087-[…] […] The long diameter a and the short diameter b of the tumor were measured with a vernier caliper every 2-3 days and the size of the tumor was calculated as a*b*b/2. The mice and tumors were weighed and recorded every day. […] The tumor volume and the survival rate of mice were recorded every 2 days. […]

Take “TLISSLMPI [tumor antigen peptide from CACNA1H mutation, position 1428 arginine to methionine]”: the “Survival period of mice” value in assay [1] and in assay [2] (vs wild-type peptide group) was “prolonged the survival period of mice” throughout. Also, the Tumor-suppressing effect entry in assay [1] and in assay [2] was “significant tumor-suppressing effects” throughout.
